Legend:
barnyardgrass [1] = assay: Test A preemergence; assay type: in vivo, Echinochloa crusgalli; settings: 1000 g ai/ha, 0 to 100 scale (0 no effect, 100 complete control), 10 days
Outline: (§1)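 Visual injury ratings on a 0–100 scale (100 = complete control) versus untreated controls, taken 10 days after treatment in greenhouse. Preemergence: directed soil spray onto seeded loam/sand. Postemergence: foliar application at one- to two-leaf stage, plants 2–10 cm. Formulation: non-phytotoxic solvent plus surfactant.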

ragweed [2] = assay: Test A postemergence; assay type: in vivo, Ambrosia artemisiifolia; settings: 1000 g ai/ha, Postemergence; 0 to 100 scale
Outline: as §1

ryegrass, Italian [3] = assay: Test A postemergence; assay type: in vivo, Lolium multiflorum; settings: 1000 g ai/ha, Postemergence; 0 to 100 scale
Outline: as §1

corn = assay: Test A postemergence; assay type: in vivo, Zea mays; settings: 1000 g ai/ha, Postemergence; 0 to 100 scale
Outline: as §1

ryegrass, Italian [4] = assay: Test A preemergence; assay type: in vivo, Lolium multiflorum; settings: 1000 g ai/ha, 0 to 100 scale (0 no effect, 100 complete control), 10 days
Outline: as §1

Pigweed, Redroot [5] = assay: Test A preemergence; assay type: in vivo, Amaranthus retroflexus; settings: 1000 g ai/ha, 0 to 100 scale (0 no effect, 100 complete control), 10 days
Excerpt: (§2) Seeds of plant species selected from barnyardgrass (Echinochloa crusgalli), blackgrass (Alopecurus myosuroides), corn (Zea mays), foxtail, giant (giant foxtail, Setaria faberi), goosegrass (Eleusine indica), kochia (Bassia scoparia), oat, wild (wild oat, Avena fatua), pigweed, palmer (palmer amaranth, palmer pigweed, Amaranthus palmeri), Pigweed, Redroot (redroot pigweed, Amaranthus retroflexus), ragweed (common ragweed, Ambrosia artemisiifolia), ryegrass, Italian (italian ryegrass, Lolium multiflorum), soybean (Glycine max), and wheat (Triticum aestivum) were planted into a blend of loam soil and sand and treated preemergence with a directed soil spray using test chemicals formulated in a non-phytotoxic solvent mixture which included a surfactant. At the same time, plants selected from these crops and weed species and also galium (catchweed bedstraw, Galium aparine) and horseweed (Erigeron canadensis) were planted in pots containing the same blend of loam soil and sand and treated with postemergence applications of test chemicals formulated in the same manner. Plants ranged in height from 2 to 10 cm and were in the one- to two-leaf stage for the postemergence treatment. Treated plants and untreated controls were maintained in a greenhouse for 10 days, after which time all treated plants were compared to untreated controls and visually evaluated for injury. Plant response ratings, summarized in Table A, are based on a 0 to 100 scale where 0 is no effect and 100 is complete control. A dash (-) response means no test result.

kochia [6] = assay: Test A postemergence; assay type: in vivo, Bassia scoparia; settings: 1000 g ai/ha, Postemergence; 0 to 100 scale
Outline: as §1

foxtail, giant [7] = assay: Test A preemergence; assay type: in vivo, Setaria faberi; settings: 1000 g ai/ha, 0 to 100 scale (0 no effect, 100 complete control), 10 days
Outline: as §1

Pigweed, Redroot [8] = assay: Test A postemergence; assay type: in vivo, Amaranthus retroflexus; settings: 1000 g ai/ha, Postemergence; 0 to 100 scale
Excerpt: as §2

kochia [9] = assay: Test A preemergence; assay type: in vivo, Bassia scoparia; settings: 1000 g ai/ha, 0 to 100 scale (0 no effect, 100 complete control), 10 days
Outline: as §1

blackgrass = assay: Test A postemergence; assay type: in vivo, Alopecurus myosuroides; settings: 1000 g ai/ha, Postemergence; 0 to 100 scale
Outline: as §1

barnyardgrass [10] = assay: Test A postemergence; assay type: in vivo, Echinochloa crusgalli; settings: 1000 g ai/ha, Postemergence; 0 to 100 scale
Outline: as §1

wheat = assay: Test A postemergence; assay type: in vivo, Triticum aestivum; settings: 1000 g ai/ha, Postemergence; 0 to 100 scale
Outline: as §1

ragweed [11] = assay: Test A preemergence; assay type: in vivo, Ambrosia artemisiifolia; settings: 1000 g ai/ha, 0 to 100 scale (0 no effect, 100 complete control), 10 days
Outline: as §1

foxtail, giant [12] = assay: Test A postemergence; assay type: in vivo, Setaria faberi; settings: 1000 g ai/ha, Postemergence; 0 to 100 scale
Outline: as §1

ducksalad = assay: Test B flooded paddy test; assay type: in vivo, Heteranthera limosa; settings: 250 g ai/ha, Flood, 13 days, 0 to 100 scale (0 no effect, 100 complete control)
Outline: (§3)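 2-leaf stage; pots flooded 3 cm over soil; compound dosed into paddy water; depth kept constant. Greenhouse, 13 d. Visual rating vs controls, 0 (no effect)–100 (complete control). Dash = no result.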

barnyardgrass [13] = assay: Test B flooded paddy test; assay type: in vivo, Echinochloa crus-galli; settings: 250 g ai/ha, Flood, 13 days, 0 to 100 scale (0 no effect, 100 complete control)
Outline: as §3

rice = assay: Test B flooded paddy test; assay type: in vivo, Oryza sativa; settings: 250 g ai/ha, Flood, 13 days, 0 to 100 scale (0 no effect, 100 complete control)
Outline: as §3

sedge, umbrella = assay: Test B flooded paddy test; assay type: in vivo, Cyperus difformis; settings: 250 g ai/ha, Flood, 13 days, 0 to 100 scale (0 no effect, 100 complete control)
Outline: as §3

galium = assay: Test A postemergence; assay type: in vivo, Galium aparine; settings: 1000 g ai/ha, Postemergence; 0 to 100 scale
Outline: as §1

SMILES	Plant response rating, Barnyardgrass (barnyardgrass [1])	Plant response rating, Ragweed (ragweed [2])	Plant response rating, Ryegrass, Italian (ryegrass, Italian [3])	Plant response rating, Corn (corn)	Plant response rating, Ryegrass, Italian (ryegrass, Italian [4])	Plant response rating, Pigweed, Redroot (Pigweed, Redroot [5])	Plant response rating, Kochia (kochia [6])	Plant response rating, Foxtail, Giant (foxtail, giant [7])	Plant response rating, Pigweed, Redroot (Pigweed, Redroot [8])	Plant response rating, Kochia (kochia [9])	Plant response rating, Blackgrass (blackgrass)	Plant response rating, Barnyardgrass (barnyardgrass [10])	Plant response rating, Wheat (wheat)	Plant response rating, Ragweed (ragweed [11])	Plant response rating, Foxtail, Giant (foxtail, giant [12])	Plant response rating, Ducksalad (ducksalad)	Plant response rating, Barnyardgrass (barnyardgrass [13])	Plant response rating, Rice (rice)	Plant response rating, Sedge, Umbrella (sedge, umbrella)	Plant response rating, Galium (galium)
CC1CN(C(=O)c2cccc(-n3cncn3)c2)c2ccc(F)cc2O1 (stereo not drawn) [Compound 23]	30	20	0	30	30	0	10	50	0	0	30	10	20	0	10	–	–	–	–	–
CCC1CN(C(=O)c2ccnc(-n3cncn3)c2)c2cccc(Cl)c2O1 (single isomer, unassigned) [Compound 5]	70	–	–	–	80	80	–	100	–	30	–	–	–	0	–	35	25	0	0	–
C=Cc1cccc2c1OC(C)CN2C(=O)c1cccc(-n2cncn2)c1 (stereo not drawn) [Compound 26]	0	0	0	0	0	0	0	0	0	0	0	0	0	0	0	–	–	–	–	–
CC1CN(C(=O)c2ccnc(-n3cncn3)c2)c2cccc(Cl)c2O1 (stereo not drawn) [Compound 10]	90	–	–	–	80	40	–	100	–	30	–	–	–	80	–	0	0	0	0	–
CCC1CN(C(=O)c2ccnc(-n3cncn3)c2)c2cccc(C)c2O1 (stereo not drawn) [Compound 11]	30	–	–	–	50	90	–	100	–	0	–	–	–	0	–	–	–	–	–	–
CC1CN(C(=O)c2cccc(-n3cncn3)c2)c2ccccc2O1 (stereo not drawn) [Compound 31]	80	0	70	30	90	0	20	100	0	30	50	30	40	20	80	–	–	–	–	–
C[C@H]1CN(C(=O)c2cccc(-n3cccn3)c2)c2cccc(Cl)c2O1 [Compound 129]	20	0	0	0	50	20	10	0	70	20	30	20	0	0	10	–	–	–	–	30
